From patent publication US8716279B2, “Pharmaceutical compositions of clonazepam and method of use thereof” (Jazz Pharmaceuticals, Inc., priority 2006, dated 2014)

How the values were obtained:
[1] = Human pharmacokinetic, safety and tolerability study (oral, intravenous, intranasal cross-over); settings: metabolite after 1 mg clonazepam
Protocol: The human pharmacokinetics, safety, and tolerability of the clonazepam compositions of the present invention formulated for intranasal delivery for therapeutic applications are evaluated using standard clinical procedures. Clonazepam compositions formulated for intranasal delivery are provided, for example, for application by the participants to intranasal mucosa.
A primary objective of initial studies in humans is to determine and compare pharmacokinetic profiles of three dosage forms of clonazepam: oral, i.v., and intranasal, following single administration. An example of such a study in humans is a cross-over study performed in 12 healthy male volunteers. Plasma and urine level of clonazepam and 7-amino-clonazepam are determined, for example, using HPLC and UV detection. […] Further the initial studies in humans are used to determine local tolerability of intranasal formulation using questionnaire and the Visual Analog Scale (VAS). VAS is a validated instrument that has been used in numerous studies to quantify subjective opening of the nasal passages. In addition, cognitive, sleepiness and mood effects are evaluated using questionnaires and scales (see, e.g., Example 10 below). Further, attention and vigilance may be evaluated using, for example, LEEDS Psychomotor Multiple Choice Reaction Time (MCRT) testing.
A human pharmacokinetic study was carried out as described in Example 8.
15 young, healthy male volunteers received a single dose of 1 mg clonazepam by oral, intravenous and intranasal routes in a three-period cross-over design.

[2] = Spray pattern of solvent matrices from Pfeiffer unit-dose devices; format: physicochemical; settings: 100 μL, Pfeiffer unit-dose device, 20-25° C.
Protocol: (§1) Fourteen representative solvent matrices used for clonazepam formulations were tested for spray pattern and compared with water. The solvent mixtures were made up, spiked with minute amounts of Coomassie Brilliant Blue Dye and 100 μL were subsequently filled into Pfeiffer unit-dose devices (Pfeiffer of America, Princeton, N.J.). To measure the spray pattern, the devices were actuated below a sheet of paper that was located 3 cm above the spray nozzle. All measurements were made at ambient room temperature (20-25° C.). The smallest (Dmin) and the largest (Dmax) diameter of the blue pattern formed on the sheet of paper were measured and the results used to calculate the Dmax/Dmin ratio, the area of the pattern and the average spray angle. The plume area at 3 cm was calculated using the equation for the area of an ellipse using the half of the two diameters as the ellipse radii. Viscosity of all formulations was measured using Brookfield DV-I viscometer (Brookfield Engineering Laboratories, Inc., Middleboro, Mass.).

[3] = Viscosity of solvent matrices; format: physicochemical; settings: for measured viscosity: Gilmont falling ball viscometer
Protocol: as §1
As weather may dictate substantially different conditions of use, the effect of temperature on viscosity was determined. A Gilmont falling ball viscometer was filled with diethylene glycol monoethyl ether and calibrated for several hours at each temperature.

Structure (SMILES): Nc1ccc2c(c1)C(c1ccccc1Cl)=NCC(=O)N2 [7-Amino-clonazepam]
- mean AUCt ([1]; intranasal route): 16.9 ng·h/mL
- mean Cmax ([1]; intranasal route, 24-hour sampling): 1.17 ng/mL
- mean AUCt ([1]; intravenous route): approximately 30 ng·h/mL
- mean Cmax ([1]; intravenous route): approximately 2 ng/mL
- mean AUCt ([1]; oral route): approximately 30 ng·h/mL
- mean Cmax ([1]; oral route): approximately 2 ng/mL

Structure (SMILES): O [Water]
- Plume area at 3 cm (cm^2) [2]: 15.52 cm^2
- Ratio Dmax/Dmin [2]: 1.10
- Avg. viscosity (cP) ([3]; Brookfield DV-I viscometer, solvent matrix without clonazepam): 1.0 cP

Structure (SMILES): CCOCCOCCO [diethylene glycol monoethyl ether, Diethylene glycol monoethyl ether]
- measured viscosity ([3]; 8° C.): 5.4 cP
- measured viscosity ([3]; 23° C.): 3.8 cP
- measured viscosity ([3]; 40° C.): 3.1 cP
- measured viscosity ([3]; −17° C.): 6.6 cP
